Results from patent publication US4719231A, “3-[N-(mercaptoacyl)]amino-4-arylbutanoic acid derivatives and an analgesic agent comprising the same” (Zaidan Hojin Biseibutsu Kagaku Kenkyu Kai, priority 1984, dated 1988).
“And” between values parts separate entries of the source, which are not always exact repeats. Equal values may be shown once.

Legend:
enkephalinase = target: T1, enkephalinase (Rattus norvegicus, UniProt P07861); assay: Inhibitory activity against enkephalinase; type: biochemical; settings: enkephalinase from corpus striatum of rat brain; substrate methionine-enkephaline; pH 7.7; 1 hour at 37° C.
T1 construct: A preparation of enkephalinase was made by homogenizing corpus striatum of rat brain and by partial purification of the brain homogenate; from tissue; host or cells: rat brain corpus striatum, homogenized and partially purified
T1 sequence (P07861 1-750): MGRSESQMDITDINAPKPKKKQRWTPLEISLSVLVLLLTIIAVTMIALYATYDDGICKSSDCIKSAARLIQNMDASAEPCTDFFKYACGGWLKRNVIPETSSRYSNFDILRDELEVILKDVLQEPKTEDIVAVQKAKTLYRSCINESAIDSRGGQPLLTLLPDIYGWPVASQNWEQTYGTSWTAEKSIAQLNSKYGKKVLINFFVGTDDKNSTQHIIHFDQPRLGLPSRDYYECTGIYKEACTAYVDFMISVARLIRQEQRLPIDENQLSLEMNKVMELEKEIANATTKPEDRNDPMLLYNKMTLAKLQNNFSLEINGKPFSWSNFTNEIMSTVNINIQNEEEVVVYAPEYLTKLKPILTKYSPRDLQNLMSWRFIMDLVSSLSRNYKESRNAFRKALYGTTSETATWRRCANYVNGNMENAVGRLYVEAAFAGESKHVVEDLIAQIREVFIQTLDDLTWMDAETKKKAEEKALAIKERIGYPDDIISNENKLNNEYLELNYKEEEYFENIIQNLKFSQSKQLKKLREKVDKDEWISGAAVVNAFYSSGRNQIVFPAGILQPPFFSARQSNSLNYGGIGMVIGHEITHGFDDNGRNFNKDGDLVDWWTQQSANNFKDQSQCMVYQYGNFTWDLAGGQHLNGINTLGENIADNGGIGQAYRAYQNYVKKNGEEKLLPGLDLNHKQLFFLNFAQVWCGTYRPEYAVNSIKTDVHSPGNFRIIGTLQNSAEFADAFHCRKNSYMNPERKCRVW
Procedure: Inhibitory activity against enkephalinase
A preparation of enkephalinase was made by homogenizing corpus striatum of rat brain and by partial purification of the brain homogenate according to the method of Gorenstein et al (see: the "Life Science" vol. 25, 2065~2070 (1979)).
A test compound as identified in Table 1 below was dissolved in a mixture of Tris-hydrochloride buffered solution (pH 7.7) and an aqueous 1% Triton×100 (an active surfactant) to such a concentration that the added quantity of the test compound amounted to one-tenth of the volume of said mixture. To the solution of the test compound so prepared was added the enkephalinase, followed by incubation for 5 minutes at ambient temperature and the resulting mixture was admixed with methionine-enkephaline as the substrate. The reaction mixture so prepared was incubated for 1 hour at 37° C. and then subjected to a high-performance liquid chromatography in such a manner that the Tyr-Gly-Gly (a fragment of the methionine-enkephaline) formed by the enzymatic degradation of the methionine-enkephaline was isolated and the quantity of Tyr-Gly-Gly was determined by an electro-chemical detector. In this way, IC50 value of the test compound, namely, the dose of the test compound required for 50% inhibition of the enkephalinase was measured.

[1] = Effect of enhancing the analgesia by DAME, tail-flick latency method; type: in vivo, rat; settings: rats; for Enhancement in the analgesia by DAME: DAME 10 μg + test compound 30 μg relative to DAME 10 μg; for M.P.E. DAME 10 μg + Test Compound 30 μg: n = 3 - 4, **P < 0.01; for M.P.E. Test compound 30 μg: test compound 30 μg alone, n = 3 - 4
Procedure: Effect of enhancing the analgesia by [D-ala^2,met^5 ]enkephaline (abbreviated as DAME)
A known analgesic compound, DAME and the particular compound under test of this invention were administered into the brain of the test rats by puncture of cerebroventride.
Thus, the test compound was administered into the brain of the rats using a metal cannula of 400 μm in external diameter which had been inserted into the ventriculus lateralis cerebri in a brain region of 3.2 mm anterior from the bregma, 0 mm from the central line and 0.7 mm in depth, of the brain. [see "L. J. Pellegrino and A. J. Cushman; A Stereotaxic Atras of the Rat Brain. Appleton-Century-Crofts, Division of Meredith Publishing Co., New York, (1967)"]. The test for the estimation was commenced at such a time after 48 hours or more later than the end of the surgical operation when the test rats were deemed as having recovered from the damages induced by the surgical operation. Analgesia tests were conducted using the rats having been closely restrained in a wire mesh cage, according to the tail-flick latency method (see: Hachisu et al., Life Sciences, 30, 1739-1746 (1982)). Analgesic activity was evaluated in term of the value of percentage of increase in the tail-flick latency time of the test rats receiving the test compound, as compared with the control rats receiving no test compound. The power of the radiant heat source was adjusted to give a tail-flick latency value (as the control value) of about 2 seconds for the rats before the administration of the test compound.
The cut-off of 7 seconds was used in order to prevent the tail tissues from being damaged by the heat. The maximal percent effect (M.P.E) of the tail-flick latency test was calculated according to the following equation: [formula]

[2] = Analgesic activity by the acetic acid-writhing method; type: in vivo, mouse (ddy-strain); settings: mice, *P < 0.05, **P < 0.01
Procedure: Analgesic activity of test compound as estimated according to the acetic acid-writhing method
Mice of ddy-strain (body weight 20 to 25 grams) were employed as the test animal. A suspension of the compound under test was subcutaneously injected in such a manner that said suspension as injected into each mouse provides the dosage of 30 mg/kg or 300 mg/kg of the test compound. 30 Minutes after the administration, an aqueous solution of 0.6% of acetic acid was injected intraperitoneally into the mice at a volume of 0.1 ml per 10 g of the body weight. 5 Minutes after the injection of the aqueous acetic acid, the estimation was commenced to count the number of the writhing reaction of the treated mice (the motions such as abdominal constrictions and extensions of the treated mice as induced by the injection of acetic acid) which took place for the subsequent 15 minutes.
The rate (%) of suppression of the writhing reaction by the test compound was evaluated according to the following equation: [formula]

[3] = into the brain (cerebroventricle)

Compound: N[C@H](Cc1ccccc1)[C@H](O)C(=O)O [(2S,3R)-AHPA, 3-amino-2-hydroxy-4-phenylbutanoic acid, reference compound]
- IC50 (enkephalinase): 14000 µM

Compound: CC(=O)SCC(=O)N[C@H](Cc1ccccc1)[C@H](O)C(=O)O [(2S,3R)-N--(AcSCH2 CO)--AHPA, (2S,3R)-3-[N-(acetylthioacetyl)]amino-2-hydroxy-4-phenylbutanoic acid]
- IC50 (enkephalinase): 50 µM
- Enhancement in the analgesia by DAME [1]: 617.2
- M.P.E. DAME 10 μg + Test Compound 30 μg [1, 3]: 100 ± 0%
- M.P.E. Test compound 30 μg [1, 3]: 13.1 ± 6.0%
- Rate of suppression (%) (average value ± S.E.) ([2]; 30 mg/kg subcutaneous): 33.7 ± 13.5%
- Rate of suppression (%) (average value ± S.E.) ([2]; 300 mg/kg subcutaneous): 33.3 ± 13.4%

Compound: CC(=O)SCC(=O)N[C@H](Cc1ccccc1)[C@H](O)C(=O)NCC(=O)O [(2S,3R)-N--(AcSCH2 CO)--AHPA--Gly, N-{(2S,3R)-3-[N-(acetylthioacetyl)]amino-2-hydroxy-4-phenylbutanoyl}glycine]
- IC50 (enkephalinase): > 300 µM

Compound: CC(=O)SCC(=O)N[C@H](Cc1ccccc1)[C@H](O)C(=O)N[C@@H](CC(C)C)C(=O)O [(2S,3R)-N--(AcSCH2CO)--AHPA--L-Leu, N-{(2S,3R)-3-[N-(acetylthioacetyl)]amino-2-hydroxy-4-phenylbutanoyl}-L-leucine]
- IC50 (enkephalinase): > 300 µM

Compound: O=C(CCSC(=O)c1ccccc1)N[C@H](Cc1ccccc1)[C@H](O)C(=O)O [(2S,3R)-N--(BzSCH2 CH2 CO)--AHPA, (2S,3R)-3-[N-(3-benzoylthiopropionyl)]amino-2-hydroxy-4-phenylbutanoic acid]
- IC50 (enkephalinase): > 300 µM

Compound: CC(SC(=O)c1ccccc1)C(=O)N[C@H](Cc1ccccc1)[C@H](O)C(=O)O (stereo partly drawn) [(2S,3R)-N--(BzSCH(Me)CO)--AHPA, (2S,3R)-3-[N-(2-benzoylthiopropionyl)]amino-2-hydroxy-4-phenylbutanoic acid]
- IC50 (enkephalinase): > 300 µM

Compound: O=C(CS)N[C@H](Cc1ccccc1)[C@H](O)C(=O)O [(2S,3R)-N--(HSCH2 CO)--AHPA, (2S,3R)-3-[N-(mercaptoacetyl)]amino-2-hydroxy-4-phenylbutanoic acid]
- IC50 (enkephalinase): 3 µM
- Rate of suppression (%) (average value ± S.E.) ([2]; 30 mg/kg subcutaneous): 12.5 ± 14.7%
- Rate of suppression (%) (average value ± S.E.) ([2]; 300 mg/kg subcutaneous): 36.5 ± 10.5%

Compound: N[C@@H](CS)C(=O)N[C@H](Cc1ccccc1)[C@H](O)C(=O)O [(2S,3R)-N--(L-Cys)--AHPA, (2S,3R)-3-(N-L-Cysteinyl)amino-2-hydroxy-4-phenylbutanoic acid]
- IC50 (enkephalinase): 40 µM
- Enhancement in the analgesia by DAME [1]: 604.2
- M.P.E. DAME 10 μg + Test Compound 30 μg [1, 3]: 87.0 ± 13.0%
- M.P.E. Test compound 30 μg [1, 3]: 10.0 ± 5.2%
- Rate of suppression (%) (average value ± S.E.) ([2]; 30 mg/kg subcutaneous): 56.5 ± 9.9%
- Rate of suppression (%) (average value ± S.E.) ([2]; 300 mg/kg subcutaneous): 47.9 ± 11.9%

Compound: CC(=O)SCC(=O)N[C@@H](Cc1ccccc1)[C@H](O)C(=O)O [(2S,3S)-N--(AcSCH2 CO)--AHPA, (2S,3S)-3-[N-(acetylthioacetyl)]amino-2-hydroxy-4-phenylbutanoic acid]
- IC50 (enkephalinase): 300 µM

Compound: O=C(CS)N[C@@H](Cc1ccccc1)[C@H](O)C(=O)O [(2S,3S)-N--(HSCH2 CO)--AHPA, (2S,3S)-3-[N-(mercaptoacetyl)]amino-2-hydroxy-4-phenylbutanoic acid]
- IC50 (enkephalinase): 20 µM

Compound: [D-ala^2,met^5 ]enkephaline [DAME, reference compound]
- M.P.E. DAME 10 μg ([1]; DAME 10 μg alone, into the brain (cerebroventricle), n = 3 - 4, *P < 0.05): 16.2 ± 3.9% and 14.4 ± 4.2%
